Assay [1] deals with Mycobacterium tuberculosis. In words: Antibiofilm activity against Mycobacterium tuberculosis assessed as log reduction in bacterial growth at 10 uM measured after 1 week relative to control. Conditions: time 1 weeks. Format: functional, H37Rv.
The subject of assay [2] is Mycobacterium tuberculosis. Kind of assay: Antitubercular activity against 6-weeks nutrient starved phase cultures of Mycobacterium tuberculosis H37Rv assessed as log reduction in bacterial growth at 10 uM treated for 7 days measured after 4 weeks relative to control. The assay is classed as functional. Conditions: time 5 weeks.
Another assay deals with HEK293. Kind of assay: Cytotoxicity against HEK293 cells assessed as reduction in cell viability measured after 48 hrs by MTT assay. Format: cell-based. Conditions: Homo sapiens, HEK293, 48 h. Background: Formazan colour is commonly taken as a measure of viable cells.
For assay [3], the system named is Mycobacterium tuberculosis. In words: Inhibition of N-terminal 6His-taggged Mycobacterium tuberculosis KARI expressed in Escherichia coli BL21 at 100 uM using 2-acetolactate as substrate preincubated for 30 mins followed by substrate addition in presence of NADPH relative to control.
Assay [4] can be described thus: Inhibition of N-terminal 6His-taggged Mycobacterium tuberculosis KARI expressed in Escherichia coli BL21 using 2-acetolactate as substrate preincubated for 30 mins followed by substrate addition in presence of NADPH.
The test system of assay [5] is Mycobacterium tuberculosis. Kind of assay: Antitubercular activity against Mycobacterium tuberculosis H37Rv measured after 1 week by microplate alamar blue assay. Conditions: 168 h, time 1 weeks. The assay is classed as functional. Background: Resazurin is reduced to fluorescent resorufin, in cell work by metabolically active cells.
Assay [6] in a line: Protection index, ratio IC50 for HEK293 cells to MIC for antitubercular activity against Mycobacterium tuberculosis H37Rv.
Assay [7] relates to Mycobacterium tuberculosis. Kind of assay: Antitubercular activity against Mycobacterium tuberculosis H37Rv infected in mouse primary macrophages assessed as log reduction in bacterial growth at 10 uM measured after 48 hrs relative to control. The assay is classed as functional, Primary macrophage.
In assay [8] the test system is Mycobacterium tuberculosis. In words: Antimycobacterial activity against dormant Mycobacterium tuberculosis H37Rv incubated for 7 days under nutrient deprived condition. Format: functional, organism-based. Conditions: time 7.0 day.
In assay [9] the test system is Mycobacterium tuberculosis. In words: Antitubercular activity against early logarithmic phase cultures of Mycobacterium tuberculosis H37Rv at 1.56 to 100 uM. The assay is classed as functional, organism-based. As to conditions: dose 1.56-100 µM, TDE = time-dependent effect.
Assay [10] concerns Mycobacterium tuberculosis. Kind of assay: Antimycobacterial activity against dormant Mycobacterium tuberculosis H37Rv under nutrient deprived condition. As to conditions: TDE = time-dependent effect. The assay is classed as functional, organism-based.
In assay [11] the test system is Mycobacterium tuberculosis. In words: Antitubercular activity against early logarithmic phase cultures of Mycobacterium tuberculosis H37Rv treated for 6 days and measured 2 days post last dose. Conditions: time 8.0 day. Format: functional, organism-based.

Values after ≈ are worked out from the molar mass of the structure shown.

In the case of `COc1ccc(NC(=S)Nc2nnc(-c3ccc([N+](=O)[O-])s3)s2)cc1`, the “log(activity)” value in assay [1] was found to be 1.5; in assay [2] it was 1.8; in assay [7], 2.2. The concentration for half-maximal inhibition (IC50) in the assay with HEK293 is 68.2 µM. Also, the inhibition in assay [3] is more than 50%. Further, the Ki in assay [4] worked out at 9.27 µM. The compound also returned an MIC in [5] of 0.78 µM (≈ 0.307 µg/mL). Besides, the PI in [6] is reported as 87.4.
Consider `CO[C@H]1/C=C/O[C@@]2(C)Oc3c(C)c(O)c4c(O)c(c(/C=N/N5CCN(C)CC5)c(O)c4c3C2=O)NC(=O)/C(C)=C\C=C\[C@H](C)[C@H](O)[C@@H](C)[C@@H](O)[C@@H](C)[C@H](OC(C)=O)[C@@H]1C` [RIFAMPIN], for which the “log(activity)” value in [1] is recorded as 0.9; in [2], 1.8. In addition, in assay [5], it took 0.5 µM (≈ 0.411 µg/mL) to inhibit growth (MIC).
With `COc1c(N2C[C@@H]3CCCN[C@@H]3C2)c(F)cc2c(=O)c(C(=O)O)cn(C3CC3)c12` [MOXIFLOXACIN], the “log(activity)” value was 1.8 in [1] and 2 in assay [2].
Consider `O=[N+]([O-])c1ccc(-c2nnc(NC(=S)Nc3ccc(Cl)cc3)s2)s1`, for which the “log(activity)” value is recorded as 1.2 in assay [1] and 1 in assay [2]. In the assay with HEK293, the IC50 turned out to be 102 µM. Moreover, the inhibition in assay [3] was more than 50%. Besides, the inhibition constant (Ki) in assay [4] was 8.35 µM. This compound gave an MIC in assay [5] of 25 µM (≈ 9.95 µg/mL). Further, the PI in assay [6] worked out at 4.1.
As for `CC[C@@H](CO)NCCN[C@@H](CC)CO` [ETHAMBUTOL], the minimum inhibitory concentration (MIC) in assay [5] came to 7.63 µM (≈ 1.56 µg/mL).
`CC(=O)c1ccc(S(=O)(=O)Nc2nnc(-c3ccc([N+](=O)[O-])o3)s2)cc1`: the “log(activity)” value in [1] stood at 1.1; in assay [2], 2.1; in [7], 1.6. The IC50 with HEK293 worked out at 57.1 µM. In addition, the inhibition in assay [3] is more than 50%. Moreover, the Ki in assay [4] was 4.72 µM. The same compound came in with a minimum inhibitory concentration (MIC) in [5] of 1.56 µM (≈ 0.615 µg/mL). In [6], the PI worked out at 36.6. Besides, the Activity result in assay [8] is “Dose-dependent effect”; in assay [9], “Tde”; in assay [10], “Tde”.
Turning to `COc1ccc(NC(=O)Nc2nnc(-c3ccc([N+](=O)[O-])s3)s2)cc1`, the Ki in assay [4] was determined as 3.06 µM.
Take `NNC(=O)c1ccncc1` [ISONIAZID]: the “log(activity)” value came out at 1 in assay [1], 1.5 in [2] and 2.5 in assay [7]. Moreover, in assay [5], the MIC was 0.4 µM (≈ 0.0549 µg/mL).
In the case of `COc1ccc(NC(=S)Nc2nnc(-c3ccc([N+](=O)[O-])o3)s2)cc1`, the “log(activity)” value in [1] is 1.8; in assay [2], 2.5; in [7], 1.7. For the same compound, in the assay on HEK293, the IC50 came out at 86 µM. Also, the inhibition in assay [3] was more than 50%. Further, in assay [4], the inhibition constant (Ki) was determined as 2.02 µM. Further, the Activity entry is “Dose-dependent effect” in [11], “Dose-dependent effect” in assay [8] and “Tde” in assay [10]. Moreover, the lowest concentration to inhibit growth in [5] (MIC) was 0.78 µM (≈ 0.294 µg/mL). In addition, the PI in assay [6] is reported as 110.2.
For the compound `O=[N+]([O-])c1ccc(-c2nnc(NC(=S)Nc3ccc(F)cc3)s2)o1`, the “log(activity)” value worked out at 1.3 in assay [1], 2.3 in assay [2] and 1.9 in assay [7]. In addition, in the assay on HEK293, the IC50 amounted to 72.5 µM. Moreover, the inhibition in assay [3] was more than 50%. In addition, the Ki in assay [4] turned out to be 5.48 µM. Moreover, the Activity entry in assay [11] was “Dose-dependent effect”. Further, the minimal inhibitory concentration (MIC) in assay [5] worked out at 0.78 µM (≈ 0.285 µg/mL). In assay [6], the PI was 92.9.

One may read the IC50 as the concentration needed to halve the response being measured. The inhibition is the relative decrease from the control value, in per cent. As usually defined, the Ki is a dissociation constant, usually derived from enzyme kinetics or from competition with a known ligand. As usually defined, the MIC is the least concentration at which growth counts as inhibited. Low values mean a more susceptible organism, high ones a less susceptible organism.
